Reference: patent publication US11447466B2, “Substituted indole compounds useful as inhibitors of TLR7/8/9” (BRISTOL-MYERS SQUIBB COMPANY, priority 2017, dated 2022)

Columns and labels:
Type in all cases: cell-based
human TLR9 = biological target: T1, human TLR9 (Homo sapiens, UniProt Q9NR96); assay: TLR9 inhibition reporter assay (HEK-Blue SEAP reporter, ODN2006 stimulation); settings: HEK-Blue cells overexpressing human TLR9, SEAP reporter, ODN2006 5 nM, 22 hour incubation
T1 construct: host or cells: HEK-Blue cells
T1 sequence (Q9NR96 26-1032): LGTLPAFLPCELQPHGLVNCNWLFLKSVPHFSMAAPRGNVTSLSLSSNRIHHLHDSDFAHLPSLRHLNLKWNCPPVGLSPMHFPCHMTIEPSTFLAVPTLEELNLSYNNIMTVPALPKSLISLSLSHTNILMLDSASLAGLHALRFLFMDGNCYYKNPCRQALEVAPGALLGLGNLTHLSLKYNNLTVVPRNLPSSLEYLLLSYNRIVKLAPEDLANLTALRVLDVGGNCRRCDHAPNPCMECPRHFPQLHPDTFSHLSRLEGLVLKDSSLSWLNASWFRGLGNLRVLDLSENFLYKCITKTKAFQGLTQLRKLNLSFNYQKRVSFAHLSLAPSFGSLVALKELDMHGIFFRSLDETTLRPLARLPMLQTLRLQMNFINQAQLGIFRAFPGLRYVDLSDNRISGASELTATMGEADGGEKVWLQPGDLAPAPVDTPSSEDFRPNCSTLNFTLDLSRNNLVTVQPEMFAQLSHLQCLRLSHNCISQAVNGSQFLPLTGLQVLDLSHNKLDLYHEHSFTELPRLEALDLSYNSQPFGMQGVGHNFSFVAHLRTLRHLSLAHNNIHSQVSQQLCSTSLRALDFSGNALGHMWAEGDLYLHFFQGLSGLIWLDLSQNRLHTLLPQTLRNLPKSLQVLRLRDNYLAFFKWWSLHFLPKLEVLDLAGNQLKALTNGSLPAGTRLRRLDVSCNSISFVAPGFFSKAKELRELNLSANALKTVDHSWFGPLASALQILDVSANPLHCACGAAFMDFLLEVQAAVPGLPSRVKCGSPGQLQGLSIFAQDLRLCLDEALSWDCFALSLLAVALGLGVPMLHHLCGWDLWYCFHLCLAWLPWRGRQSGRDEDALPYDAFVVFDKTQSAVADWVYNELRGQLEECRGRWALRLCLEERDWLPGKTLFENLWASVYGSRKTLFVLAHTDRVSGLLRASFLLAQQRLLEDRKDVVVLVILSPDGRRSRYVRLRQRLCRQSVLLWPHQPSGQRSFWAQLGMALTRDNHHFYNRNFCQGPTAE
Procedure, shortened: (§1)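 Screening used HEK-Blue cells overexpressing one human TLR (7, 8 or 9) and an IFN-β minimal promoter–NF-κB/AP-1 SEAP construct. Stimulation lasted 22 h at 37 °C with receptor-specific agonist: gardiquimod, R848 or ODN2006 at 7.5 μM, 15.9 μM and 5 nM.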

human TLR8 = biological target: T2, human TLR8 (Homo sapiens, UniProt Q9NR97); assay: TLR8 inhibition reporter assay (HEK-Blue SEAP reporter, R848 stimulation); settings: HEK-Blue cells overexpressing human TLR8, SEAP reporter, R848 15.9 μM, 22 hour incubation
T2 construct: host or cells: HEK-Blue cells
T2 sequence (Q9NR97 27-1041): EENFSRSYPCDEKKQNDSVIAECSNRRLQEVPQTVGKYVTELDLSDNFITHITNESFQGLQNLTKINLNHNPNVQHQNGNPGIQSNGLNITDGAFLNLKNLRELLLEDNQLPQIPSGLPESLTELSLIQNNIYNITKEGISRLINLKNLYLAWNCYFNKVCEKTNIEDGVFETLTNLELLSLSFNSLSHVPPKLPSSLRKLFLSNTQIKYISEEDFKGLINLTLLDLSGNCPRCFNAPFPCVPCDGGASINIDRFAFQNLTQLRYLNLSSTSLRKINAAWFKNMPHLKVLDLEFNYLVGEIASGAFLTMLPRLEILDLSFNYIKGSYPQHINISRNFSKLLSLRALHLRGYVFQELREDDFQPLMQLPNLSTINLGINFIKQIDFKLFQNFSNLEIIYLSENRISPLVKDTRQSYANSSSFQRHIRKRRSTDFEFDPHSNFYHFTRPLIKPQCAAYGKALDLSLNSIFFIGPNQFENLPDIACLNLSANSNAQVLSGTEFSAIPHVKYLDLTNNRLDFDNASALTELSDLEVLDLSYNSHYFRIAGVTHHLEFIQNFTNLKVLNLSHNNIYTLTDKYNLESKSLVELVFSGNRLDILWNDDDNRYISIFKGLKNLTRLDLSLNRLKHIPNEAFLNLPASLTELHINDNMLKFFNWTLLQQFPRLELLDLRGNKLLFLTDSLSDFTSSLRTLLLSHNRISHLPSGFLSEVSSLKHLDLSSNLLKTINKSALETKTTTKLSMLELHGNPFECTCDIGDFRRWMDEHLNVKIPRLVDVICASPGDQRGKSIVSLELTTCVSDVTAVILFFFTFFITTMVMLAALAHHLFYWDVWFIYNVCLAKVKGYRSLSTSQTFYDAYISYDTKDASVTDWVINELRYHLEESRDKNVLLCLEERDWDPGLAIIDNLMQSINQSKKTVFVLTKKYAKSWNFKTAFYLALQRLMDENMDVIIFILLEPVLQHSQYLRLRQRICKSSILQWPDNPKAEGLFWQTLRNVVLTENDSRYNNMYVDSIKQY
Procedure, shortened: as §1

human TLR7 = biological target: T3, human TLR7 (Homo sapiens, UniProt Q9NYK1); assay: TLR7 inhibition reporter assay (HEK-Blue SEAP reporter, gardiquimod stimulation); settings: HEK-Blue cells overexpressing human TLR7, SEAP reporter, gardiquimod 7.5 μM, 22 hour incubation
T3 construct: host or cells: HEK-Blue cells
T3 sequence (Q9NYK1 27-1049): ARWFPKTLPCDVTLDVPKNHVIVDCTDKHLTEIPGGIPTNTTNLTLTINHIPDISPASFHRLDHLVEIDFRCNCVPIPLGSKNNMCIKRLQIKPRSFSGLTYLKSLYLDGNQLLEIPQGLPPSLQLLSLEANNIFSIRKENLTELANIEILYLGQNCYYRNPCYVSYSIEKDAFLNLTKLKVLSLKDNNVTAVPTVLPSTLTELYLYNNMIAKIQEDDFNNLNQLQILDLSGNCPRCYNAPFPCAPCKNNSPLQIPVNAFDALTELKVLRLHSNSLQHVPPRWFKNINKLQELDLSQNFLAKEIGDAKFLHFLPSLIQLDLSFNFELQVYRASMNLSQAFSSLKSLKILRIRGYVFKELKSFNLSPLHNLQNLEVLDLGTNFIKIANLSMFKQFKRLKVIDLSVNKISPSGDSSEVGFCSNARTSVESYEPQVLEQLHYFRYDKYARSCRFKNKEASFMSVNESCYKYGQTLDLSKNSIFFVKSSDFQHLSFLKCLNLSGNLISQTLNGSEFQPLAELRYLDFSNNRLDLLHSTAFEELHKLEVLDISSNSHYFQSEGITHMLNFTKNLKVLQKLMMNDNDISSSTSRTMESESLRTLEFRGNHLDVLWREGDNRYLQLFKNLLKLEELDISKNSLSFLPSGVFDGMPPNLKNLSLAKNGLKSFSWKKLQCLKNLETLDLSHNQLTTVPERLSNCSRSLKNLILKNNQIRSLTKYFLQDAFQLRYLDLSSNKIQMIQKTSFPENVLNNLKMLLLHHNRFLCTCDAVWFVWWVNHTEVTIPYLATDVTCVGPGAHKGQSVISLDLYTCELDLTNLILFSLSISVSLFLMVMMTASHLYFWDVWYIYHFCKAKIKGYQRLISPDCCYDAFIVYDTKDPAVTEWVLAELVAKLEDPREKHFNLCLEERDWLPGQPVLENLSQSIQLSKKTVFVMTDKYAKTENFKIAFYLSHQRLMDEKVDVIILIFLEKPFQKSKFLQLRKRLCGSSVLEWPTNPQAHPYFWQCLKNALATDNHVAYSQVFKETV
Procedure, shortened: as §1

Row | SMILES | IC50 (human TLR9) [nM] | IC50 (human TLR8) [nM] | IC50 (human TLR7) [nM]
1 | Cc1c(-c2[nH]c3ccc(C4CCN(CC5(O)CCOCC5)CC4)cc3c2C(C)C)cn(C)c(=O)c1C [Example 319, 5-(5-(1-((4-hydroxytetrahydro-2H-pyran-4-yl)methyl)piperidin-4-yl)-3-isopropyl-1H-indol-2-yl)-1,3,4-trimethylpyridin-2(1H)-one] | 4330 | 1.6 | 10.9
2 | Cc1cc(-c2[nH]c3ccc(C4CCN(CC5(O)CCOCC5)CC4)cc3c2C(C)C)c(C)n(C)c1=O [Example 320, 5-(5-(1-((4-hydroxytetrahydro-2H-pyran-4-yl)methyl)piperidin-4-yl)-3-isopropyl-1H-indol-2-yl)-1,3,6-trimethylpyridin-2(1H)-one] | 2310 | 1.7 | 14.2
3 | Cc1c(-c2[nH]c3ccc(C4CCN(CC(C)(C)O)CC4)cc3c2C(C)C)cc(C#N)c(=O)n1C [Example 321, 5-(5-(1-(2-hydroxy-2-methylpropyl)piperidin-4-yl)-3-isopropyl-1H-indol-2-yl)-1,6-dimethyl-2-oxo-1,2-dihydropyridine-3-carbonitrile] | 4370 | 1.6 | 36.7
4 | Cc1c(-c2[nH]c3ccc(C4CCN(CC(C)(C)O)CC4)cc3c2C(C)C)cn(C)c(=O)c1C#N [Example 322, 5-(5-(1-(2-hydroxy-2-methylpropyl)piperidin-4-yl)-3-isopropyl-1H-indol-2-yl)-1,4-dimethyl-2-oxo-1,2-dihydropyridine-3-carbonitrile] | 4790 | 1 | 45.7
5 | COCc1cc(-c2[nH]c3ccc(C4CCN(CC(C)(C)O)CC4)cc3c2C(C)C)cn(C)c1=O [Example 323, 5-(5-(1-(2-hydroxy-2-methylpropyl)piperidin-4-yl)-3-isopropyl-1H-indol-2-yl)-3-(methoxymethyl)-1-methylpyridin-2(1H)-one] | 7180 | 13.9 | 18.4
6 | Cc1cc(-c2[nH]c3ccc(C4CCN(CC(O)C(C)C)CC4)cc3c2C(C)C)cn(C)c1=O (stereo not drawn) [Example 324, 5-(5-(1-(2-hydroxy-3-methylbutyl)piperidin-4-yl)-3-isopropyl-1H-indol-2-yl)-1,3-dimethylpyridin-2(1H)-one] | 11500 | 2.8 | 2.5
7 | Cc1cc(-c2[nH]c3ccc(C4CCN(CC(O)C(C)(C)C)CC4)cc3c2C(C)C)cn(C)c1=O (stereo not drawn) [Example 325, 5-(5-(1-(2-hydroxy-3,3-dimethylbutyl)piperidin-4-yl)-3-isopropyl-1H-indol-2-yl)-1,3-dimethylpyridin-2(1H)-one] | 3000 | 4.3 | 8.7
8 | CC(C)c1c(-c2cc(-c3cncnc3)c(=O)n(C)c2)[nH]c2ccc(C3CCN(CC(C)(C)O)CC3)cc12 [Example 326, 5-(5-(1-(2-hydroxy-2-methylpropyl)piperidin-4-yl)-3-isopropyl-1H-indol-2-yl)-1-methyl-3-(pyrimidin-5-yl)pyridin-2(1H)-one] | 1660 | 0.6 | 6.1
9 | Cc1c(-c2[nH]c3ccc(C4CCN(CC(C)(C)O)CC4)c(F)c3c2C(C)C)cn(C)c(=O)c1Cl [Example 327, 3-chloro-5-(4-fluoro-5-(1-(2-hydroxy-2-methylpropyl)piperidin-4-yl)-3-isopropyl-1H-indol-2-yl)-1,4-dimethylpyridin-2(1H)-one] | 3280 | 1.6 | 6
10 | Cc1cc(-c2[nH]c3ccc(C4CCN(CC(C)(C)O)CC4)cc3c2C(C)C)cn(CC(C)C)c1=O [Example 328, 5-(5-(1-(2-hydroxy-2-methylpropyl)piperidin-4-yl)-3-isopropyl-1H-indol-2-yl)-1-isobutyl-3-methylpyridin-2(1H)-one] | 5970 | 54.7 | 49.1
11 | CCCN1CCC(c2ccc3[nH]c(-c4cc(-c5ccc(N6CCOCC6)nc5)c(=O)n(C)c4)c(C(C)C)c3c2)CC1 [Example 330, 5-(3-isopropyl-5-(1-propylpiperidin-4-yl)-1H-indol-2-yl)-1-methyl-6′-morpholino-[3,3′-bipyridin]-2(1H)-one] | 705 | 432 | 7.7
12 | CCCN1CCC(c2ccc3[nH]c(-c4cc(-c5cnc(OC)nc5)c(=O)n(C)c4)c(C(C)C)c3c2)CC1 [Example 331, 5-(3-isopropyl-5-(1-propylpiperidin-4-yl)-1H-indol-2-yl)-3-(2-methoxypyrimidin-5-yl)-1-methylpyridin-2(1H)-one] | 2710 | 9.6 | 6.3
13 | CCCN1CCC(c2ccc3[nH]c(-c4cc(-c5cncc(C)c5)c(=O)n(C)c4)c(C(C)C)c3c2)CC1 [Example 332, 5-(3-isopropyl-5-(1-propylpiperidin-4-yl)-1H-indol-2-yl)-1,5′-dimethyl-[3,3′-bipyridin]-2(1H)-one] | 789 | 1.1 | 4.9
